According to PMC9112662, “Scaffold stability and P14′ residue steric hindrance in the differential inhibition of FXIIa by Aedes aegypti trypsin inhibitor versus Infestin-4” (Bioscience Reports, 2022):
Positions of bridges follow the written chain, without caps; N, C: chain ends. No end group written: not given here.

Tests used:
FXIIa [1] = molecular target: T1, FXIIa (Homo sapiens, UniProt P00748); conditions: n = 3; read-out: IC50 values toward FXIIa
T1 construct: gene F12; human FXIIa (Merck)
T1 sequence (P00748 373-615): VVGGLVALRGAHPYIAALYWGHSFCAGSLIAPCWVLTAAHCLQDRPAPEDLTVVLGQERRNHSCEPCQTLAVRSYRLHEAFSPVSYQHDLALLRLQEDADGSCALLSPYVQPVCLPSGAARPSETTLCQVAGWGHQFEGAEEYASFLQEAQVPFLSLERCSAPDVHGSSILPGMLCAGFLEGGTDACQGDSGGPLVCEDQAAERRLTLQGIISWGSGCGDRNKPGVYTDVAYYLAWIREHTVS
Protocol: For IC50 determination, FXIIa was pre-incubated with different concentrations of inhibitors. The generation of p-nitroaniline (pNA) was determined by measuring the absorbance at 405 nm using a absorbance plate reader (Tecan; Männedorf, Switzerland). The reaction mixture consisted of 40 µl FXIIa (10 nM), 40 µl inhibitor, and 40 µl chromogenic substrate (1 mM). All reaction components were prepared in 50 mM Tris pH 7.4 containing 100 mM NaCl.
For IC50 calculations, log[inhibitor concentration] vs. percentage normalized inhibition was plotted using a non-linear regression curve function, created with Kaleidagraph 4.5.2 (Synergy Software; Reading, PA). All data represent the mean ± SD for triplicate values.

plasmin = conditions: cited from earlier work
thrombin = conditions: cited from earlier work
Text: The Kazal-type inhibitor, Aedes aegypti trypsin inhibitor (AaTI), is a novel trypsin Kazal-type inhibitor from Aedes aegypti, the primary vector of mosquito-borne diseases like dengue. […] AaTI has a similar structure to that of Inf4 [19], and with only a 3-residue difference in the reactive-site loop sequence. The reactive-site loop sequence makes most-if not all-of the direct contacts with the protease and is thought to be the sole factor that govern the inhibitor specificity.

[2] = molecular target: human Factor XIIa (human) (UniProt P00748)
FXIIa [3] = conditions: cited from earlier work

| Substance | IC50 (FXIIa [1]) [nM] | IC50 of inhibition of FXIIa activity, chromogenic assay (substrate S-2302) [2] [nM] | further results |
| --- | --- | --- | --- |
| AaTI with C1C3 and C3C4 regions of Inf4 (His-tagged) [AaTI_Inf4 C1C3+C3C4] | 147 ± 42.9 | – | – |
| AaTI with C1C3 and C5C6 regions of Inf4 (His-tagged) [AaTI_Inf4 C1C3+C5C6] | 113 ± 16.7 | – | – |
| Aedes aegypti trypsin inhibitor, RSDAERGVCACPRIYMPVCGSNLKTYNNDCLLRCEINSDLGRANNLRKIADQACDNLTDNVNDFIPQEY (His-tagged) [Wild-type AaTI] | > 10000 | – | Ki (plasmin): 3.8 nM; Ki (thrombin): 320 nM |
| Inf4 with C6 region replaced with that of AaTI (His-tagged) [Inf4_AaTI C6] | 6.2 ± 0.8 | – | – |
| Inf4_V14M (domain or fragment) | – | 9.9 | – |
| KEVRNPCACFRNYVPVCGSDGKTYGNPCMLNCAAQTKVPGLKLVHEGRCQRSNVEQF (disulfide 7-32, 9-28, 17-49) [Wild-type Inf4] | – | – | Ki (FXIIa [3]): 0.128 nM; Ki (plasmin): 2.1 nM |
| Wild-type Infestin-4 (domain or fragment) | – | 3.1 | – |

The next lines start with results.

| IC50 (FXIIa [1]) [nM] | IC50 of inhibition of FXIIa activity, chromogenic assay (substrate S-2302) [2] [nM] | Substance | further results |
| --- | --- | --- | --- |
| 11.4 ± 3.1 | – | AaTI with C1C3 and C5C6 regions of Inf4 and N27G (His-tagged) [AaTI_Inf4 C1C3+C5C6+N27G] | – |
| 4680 ± 3830 | – | AaTI with C1C3 region of Inf4 (His-tagged) [AaTI_Inf4 C1C3] | – |
| 610 ± 206 | – | AaTI with C1C3 region of Inf4 and F10A (His-tagged) [AaTI_Inf4 C1C3+F10A] | – |
| 58 ± 14.8 | – | AaTI with C1C3 region of Inf4 and N27G (His-tagged) [AaTI_Inf4 C1C3+N27G] | – |
| – | 11.6 | Inf4_F10P (domain or fragment) | – |
| – | 8.4 | Inf4_N12I (domain or fragment) | – |
